Results reported in patent US20240109877A1, “PYRIMIDINES FOR DEGRADING BRUTON'S TYROSINE KINASE” (AbbVie Inc., priority 2022, published 2024).
pIC50: −log10 of the molar value.

What was measured:
[1] = molecular target: His-tagged Cereblon/DDB1 complex (Homo sapiens (Human), UniProt Q96SW2); assay: Cereblon Binding Assay (AlphaLISA Human Cereblon Binding Kit, competition); details: 10 μM top dose, biotin-labeled ligand competition; read-out: CRBN IC50
Procedure: Cereblon binding was measured in vitro using an AlphaLISA® Human Cereblon Binding Kit (PerkinElmer, Waltham, MA) according to the manufacturer's protocol (“Alpha” refers to Amplified Luminescent Proximity Homogeneous Assay). In this assay, donor beads and acceptor beads come into proximity through ligand binding to CRBN protein. Excitation of the donor beads provokes the release of singlet oxygen that triggers a cascade of energy transfer reactions to the acceptor beads, resulting in a sharp peak in light emission at 615 nm.
Specifically, nickel chelate acceptor beads (PerkinElmer AL108M) were used to capture a 6XHIS-tagged CRBN protein, and streptavidin-coated donor beads (PerkinElmer 6760002) were used to capture 50 nM biotinylated ligand. Each well included the following: sample or control; HIS-tagged CRBN protein; biotinylated ligand; nickel chelate acceptor beads; and streptavidin donor beads.
Competition Assay: Test compounds in 100% dimethyl sulfoxide were plated onto white, low volume 384 well plates (PerkinElmer Proxiplate 384 plus # 6008289) using an Labcyte Echo acoustic dispenser, in an 11-point dose curve and 3-fold dilution scheme. […] Plates were incubated for 30 minutes at room temperature.
Detection: 10 μL detection reagents were added in low light conditions containing nickel chelate acceptor beads and streptavidin donor beads (Perkin Elmer 6760002), resulting in a final concentration 20 ng/ml. Plates were incubated 1 hour and read on a PerkinElmerTM Envision™ plate reader (680 nm excitation and […] settings). The IC50 of each compound was determined by calculating percent inhibition from no drug and no protein controls, and the Ki of each compound was calculated using the Cheng-Prusoff transformation. From the IC50 values were determined. The IC50 values are reported in Table 2 in the CRBN IC50 (nM) column.

[2] = molecular target: Human BTK enzyme, wild-type (Homo sapiens (Human), UniProt Q06187); assay: BTK Screening: Btk kinase activity, electrophoretic mobility shift assay (MSA); format: biochemical; details: 0.5 nM BTK enzyme, 50 μM ATP, 15 minutes pre-incubation, 3 hours at 25° C.
Procedure: Btk kinase activity was measured in vitro using an electrophoretic mobility shift assay (MSA). The ability of Btk to phosphorylate a fluorescent peptide substrate (FAM-GEEPLYWSFPAKKK-NH2) was measured. The kinase reactions were assembled in a total volume of 25 μL per well in 384 well plates. The following was added to each well: compound buffer (or control); enzyme buffer; and substrate buffer, as further described below.
Specifically the following was added: (1) compound buffer or control: 5μL of 5× compound buffer [(5× compound buffer comprised of: 1× Master Buffer, X μM test compound in 5% dimethyl sulfoxide; (2× Master Buffer comprised of 200 mM HEPES, pH7.5, 0.2% BSA, and 0.02% Triton X-100)]; and (2) enzyme buffer: 10 μL of 2.5× enzyme buffer (1× Master Buffer, 12.5 mM MgCl2, 2.5 mM DTT, 25 μM sodium orthovanadate, 25 μM beta-glycerophosphate, and 1.25 nM BTK enzyme). Human BTK enzyme Nanosyn-293HEK, wild-type, available from Nanosyn, Santa Clara, CA). Enzyme and compound were pre-incubated for 15 minutes. Additionally, the following was added: (3) substrate buffer: 10 μL of 2.5× substrate buffer (1× Master Buffer, […], and 2.5 μM of the peptide substrate FAM). Each plate was incubated at 25° C. for 3 hours. The reaction was terminated by adding to each well: 45 μL of 1.55× stop buffer (1× Master Buffer and 31 mM EDTA). The final reaction mixture was as follows: 100 mM HEPES, pH7.5; 0.1% BSA; 0.01% Triton X-100; 1 mM DTT; 5 mM MgCl2; 10 μM sodium orthovanadate; 10 μM beta-glycerophosphate; 50 μM ATP; 1% dimethyl sulfoxide (from compound); 1μM fluorescent peptide substrate and 0.5 nM BTK- enzyme. The terminated reactions were analyzed using a 12 channel LABCHIP® 3000 microfluidic detection instrument (available from Caliper Life Sciences, Waltham, MA). […] As substrate and product peptides were separated, two peaks of fluorescence were observed. Change in the relative fluorescence intensity of the substrate and product peaks was the parameter measured, reflecting enzyme activity. In the presence of an active compound, the ratio between product and substrate was altered. The signal of the product decreased, while the signal of the substrate increased. Capillary electrophoregrams (RDA acquisition files) were analyzed using HTS Well Analyzer software (available from Caliper Life Sciences, Waltham, MA).
Activity in each sample was determined as the product to sum ratio (PSR): P/(S+P), where P was the peak height of the product peptide and S was the peak height of the substrate peptide. For each compound, enzyme activity was measured at various concentrations (12 concentrations of compound spaced by 3× dilution intervals). Negative control samples (0% inhibition in the absence of an active compound) and positive control samples (100% inhibition, in the presence of 20 mM EDTA) were assembled in replicates of four and were used to calculate % inhibition values for each active compound at each concentration. Percent inhibition (Pinh) was determined using following equation: Pinh=(PSR0%−PSRinh)/(PSR0%−PSR100%)*100, where PSRinh was the product sum ratio in the presence of inhibitor, PSR0% was the average product sum ratio in the absence of active compound and PSR100% was the average product sum ratio in 100%-inhibition control samples.
The IC50 values of active compounds were determined by 4 parameter sigmoidal dose response model fitting of the inhibition curves (Pinh versus inhibitor concentration) using XLfit® 4 software (IDBS, Boston, MA). The IC50 values are reported in Table 2 in the BTK IC50 (nM) column.

pIC50 [1] | pIC50 [2] | SMILES
5.90 | 9.30 | Cc1cc(-c2cc(Nc3ccc(N4CCN(CCc5ccc(N6CCC(=O)NC6=O)cc5)C[C@@H]4C)cc3)ncn2)ccc1[C@@H](C)NC(=O)c1nc(C(C)(C)C)no1 [Example 18]
≤ 5.00 | 10.00 | Cc1cc(-c2cc(Nc3ccc(CCN4CCN(c5ccc(N6CCC(=O)NC6=O)cc5)CC4)cn3)ncn2)ccc1[C@@H](C)NC(=O)c1nc(C(C)(C)C)no1 [Example 19]
